# Molecular target: T1, total muscarinic receptor
# T1 construct: gene Chrm1
# Format: biochemical, Rattus norvegicus
# Details: control rats; striatal membranes; 1 nM [3H]QNB; Tris-HCl-EDTA pH 7.4; 22°C; one-site fit; unit not printed (concentrations in M); logarithmic value; EC50 stated to be same as IC50
# Description: [3H]QNB displacement, filtration on total muscarinic receptor
structure (smiles),measurement,value
CN1[C@@H]2CC[C@H]1CC(OC(=O)C(CO)c1ccccc1)C2 (stereo partly shown) [atropine],Log (EC50),-7.076
